System: Gram-positive bacterial pathogens
Experiment: Antibacterial activity on Gram-positive bacteria, stated in words
Type: cell-based
Details: MIC on various Gram-positive bacteria strains
Text: Synthetic teixobactin and its analogues were subjected to the assessment of their antimicrobial activities by determining their minimal inhibitory concentration on various Gram-positive bacteria strains including methicillin-susceptible S. aureus strain ATCC29213 and methicillin-resistant S. aureus clinical isolates. […] In this effort, the original stereo-configuration of the amino-acid residue should be thoroughly scrutinized. From our study, it is encouraging to find that Orn-containing teixobactin analogues maintained modest antibacterial activity. Since Orn is readily available as compared with L-allo-End and the synthesis of the Orn-containing cyclic depsipeptide (7–11) gave the best yield among all the analogue syntheses, which is amenable to a large-scale synthesis. Through the above-developed convergent synthetic strategy, various linear hexapeptide (1–6), such as 11, can be readily prepared and ligated to the Orn-containing the cyclic depsi-pentapeptide (7–11) to investigate the contribution of each amino acid in the linear peptide fragment towards the antibacterial activity, which will lead to the optimal structure for the development of teixobactin with improved properties.

Row | SMILES | antibacterial activity compared with natural teixobactin
1 | CC[C@@H](C)[C@@H](NC(=O)[C@@H](CCC(N)=O)NC(=O)[C@H](CO)NC(=O)[C@@H](NC(=O)[C@@H](Cc1ccccc1)NC)[C@@H](C)CC)C(=O)N[C@H](C(=O)N[C@@H](CO)C(=O)N[C@H]1C(=O)N[C@@H](C)C(=O)N[C@@H](CCCNC(=N)N)C(=O)N[C@@H]([C@@H](C)CC)C(=O)O[C@H]1C)[C@@H](C)CC [compound 14] | reduced antibacterial activities
2 | CC[C@H](C)[C@H](NC(=O)[C@@H](Cc1ccccc1)NC)C(=O)N[C@@H](CO)C(=O)N[C@H](CCC(N)=O)C(=O)N[C@@H](C(=O)N[C@H](C(=O)N[C@@H](CO)C(=O)N[C@H]1C(=O)N[C@@H](C)C(=O)N[C@@H](CCCN)C(=O)N[C@@H]([C@@H](C)CC)C(=O)O[C@H]1C)[C@@H](C)CC)[C@@H](C)CC [compound 16] | reduced antibacterial activities

Source: paper PMC4976201, “Total synthesis of teixobactin” (Nature Communications, 2016)
